Data taken from PMC4958397, “Synthesis, antibacterial and antiproliferative potential of some new 1-pyridinecarbonyl-4-substituted thiosemicarbazide derivatives” (Medicinal Chemistry Research, 2016).
Converted amounts (≈) assume the structure as drawn.

Key:
[1] = test system: Staphylococcus aureus ATCC 25923; test: Disk diffusion, zone of bacterial growth inhibition; type: cell-based; conditions: for zone of inhibition at 100 µg/disc: Staphylococcus aureus, ATCC25923, 100 μg of compound, read-out: Zone of bacterial growth inhibition, S.a
Excerpt: (§1) Panel reference strains of bacteria from the American Type Culture Collection or Polish Collection of Microorganisms, including aerobic Gram-positive bacteria: Staphylococcus aureus ATCC 25923 and Staphylococcus epidermidis ATCC 12228, and aerobic Gram-negative bacteria: Escherichia coli ATCC 25922 and Pseudomonas aeruginosa ATCC 9027, as well as microaerobic Gram-positive bacteria: Lactobacillus spp., Lactobacillus acidophilus PCM 2105, Streptococcus mutans PCM 2502 and Streptococcus sanguinis PCM 2335, were used. Microbial suspensions with an optical density of 0.5 McFarland standard at 1.5 × 10^8 CFU/mL (CFU: colony forming unit) were prepared in sterile 0.9 % NaCl. Mueller–Hinton (M–H) broth and M–H agar (Oxoid Ltd., England) for aerobic strains, and MRS Broth Lactobacillus, MRS Agar Lactobacillus (BioMaxima S.A., Poland), BHI Broth and BHI agar (BioMaxima S.A., Poland) for microaerobic strains were used in the microbial tests.
(§2) The preliminary antibacterial activity of the carbazide derivatives against human pathogenic Gram-positive, Gram-negative aerobic and microaerobic bacteria was evaluated by measuring the zones of inhibition in the disk diffusion method (Murray et al., [1995]). Each compound (100 µg) was placed on Petri plates with agar medium (previously inoculated with 0.5 McFarland standards with the tested bacterial strains). After 18 h of incubation at 37 °C (for aerobic strains) or 40 h at 35 °C (for microaerobic strains), zones of microbial growth produced around the tested substances were measured and recorded as the diameters of inhibition.

[2] = test system: Lactobacillus acidophilus PCM 210; test: as above; type: cell-based; conditions: for zone of inhibition at 100 µg/disc: Lactobacillus acidophilus, PCM210, 100 μg of compound, read-out: Zone of bacterial growth inhibition, L.a
Excerpt: as §1, §2

Lactobacillus spp. = test: as above; type: cell-based; conditions: 100 μg of compound; for zone of inhibition at 100 µg/disc: Lactobacillus, read-out: Zone of bacterial growth inhibition, L.spp.
Excerpt: as §1, §2

[3] = test system: Streptococcus sanguinis PCM 2335; test: as above; type: cell-based; conditions: for zone of inhibition at 100 µg/disc: Streptococcus sanguinis, PCM2335, 100 μg of compound, read-out: Zone of bacterial growth inhibition, S.s
Excerpt: as §1, §2

[4] = test system: Streptococcus mutans PCM 2502; test: as above; type: cell-based; conditions: for zone of inhibition at 100 µg/disc: Streptococcus mutans, PCM2502, 100 μg of compound, read-out: Zone of bacterial growth inhibition, S.m
Excerpt: as §1, §2

[5] = test system: Staphylococcus epidermidis ATCC 12228; test: as above; type: cell-based; conditions: for zone of inhibition at 100 µg/disc: Staphylococcus epidermidis, ATCC12228, 100 μg of compound, read-out: Zone of bacterial growth inhibition, S.e
Excerpt: as §1, §2

[6] = test system: Escherichia coli ATCC 25922; test: as above; type: cell-based; conditions: for zone of inhibition at 100 µg/disc: Escherichia coli, ATCC25922, 100 μg of compound, read-out: Zone of bacterial growth inhibition, E.c
Excerpt: as §1, §2

[7] = test system: Pseudomonas aeruginosa ATCC 9027; test: as above; type: cell-based; conditions: for zone of inhibition at 100 µg/disc: Pseudomonas aeruginosa, ATCC9027, 100 μg of compound, read-out: Zone of bacterial growth inhibition, P.a
Excerpt: as §1, §2

[8] = test system: Lactobacillus acidophilus PCM 210; test: Broth microdilution MIC; type: cell-based; conditions: for MIC: Lactobacillus acidophilus, PCM210, NA means inactive, read-out: Minimum inhibitory concentration (MIC), L. acidophilus
[9] = test system: Staphylococcus aureus ATCC 25923; test: Broth microdilution MIC; type: cell-based; conditions: for MIC: Staphylococcus aureus, ATCC25923, NA means inactive, read-out: Minimum inhibitory concentration (MIC), S. aureus
Excerpt: as §1
(§3) A broth microdilution method was used to evaluate the minimum inhibition concentration (MIC) according to the CLSI document (CLSI performance standards for antimicrobial susceptibility testing, 2008, Eighteenth International Supplement, CLSI document M7-MIC, Clinical Laboratory Standards Institute, Wayne) with some modifications. […] A serial doubling dilution of the compounds was prepared in 96-well plates (200 μL per well). A suitable medium (M-H Broth, MRS Broth Lactobacillus, BHI Broth) was used as a diluent. The final concentrations of derivatives were 1000–0.015 μg/mL. Finally, 2 μL of inoculum of the tested bacterial strain (1.5 × 10^8 CFU/mL) was added to each well. The tests were performed either at 36 °C for 18 h (aerobic strains) or at 40 h (microaerobic strains). After incubation, the panel was digitally analyzed at 600 nm using the microplate reader Bio Tech Synergy (USA) with a dedicated software system. The growth intensity in each well was compared with the negative and positive controls.

[10] = test system: Streptococcus sanguinis PCM 2335; test: Broth microdilution MIC; type: cell-based; conditions: for MIC: Streptococcus sanguinis, PCM2335, NA means inactive, read-out: Minimum inhibitory concentration (MIC), S. sanguinis
Excerpt: as §1, §3

[11] = test system: Streptococcus mutans PCM 2502; test: Broth microdilution MIC; type: cell-based; conditions: for MIC: Streptococcus mutans, PCM2502, NA means inactive, read-out: Minimum inhibitory concentration (MIC), S. mutans
Excerpt: as §1, §3

[12] = test system: Staphylococcus epidermidis ATCC 12228; test: Broth microdilution MIC; type: cell-based; conditions: for MIC: Staphylococcus epidermidis, ATCC12228, NA means inactive, read-out: Minimum inhibitory concentration (MIC), S. epidermidis
Excerpt: as §1, §3

[13] = test system: Escherichia coli ATCC 25922; test: Broth microdilution MIC; type: cell-based; conditions: NA means inactive; for MIC: Escherichia coli, ATCC25922, broth microdilution, read-out: Minimum inhibitory concentration (MIC), E. coli; for Minimum inhibitory concentration (MIC), E. coli: broth microdilution
Excerpt: as §1, §3

[14] = test system: Pseudomonas aeruginosa ATCC 9027; test: Broth microdilution MIC; type: cell-based; conditions: for MIC: Pseudomonas aeruginosa, ATCC9027, NA means inactive, read-out: Minimum inhibitory concentration (MIC), P. aeruginosa
Excerpt: as §1, §3

[15] = test system: aerobic Gram-positive bacteria; test: Broth microdilution MIC, summary in text; type: cell-based; conditions: range over compounds and strains; read-out: MIC against aerobic Gram-positive bacteria
Excerpt: as §1, §3

[16] = test system: pathogenic microaerobic bacteria (causing dental caries); test: Broth microdilution MIC, summary in text; type: cell-based; conditions: range over compounds and strains; read-out: MIC against pathogenic microaerobic bacteria
Excerpt: as §1, §3

tested bacterial strains = test: Disk diffusion, summary over all tested strains; type: cell-based; conditions: 100 μg; range over strains
Excerpt: as §1, with “Mueller–Hinton (M–H) broth and M–H agar (Oxoid Ltd., England) for aerobic strains, and MRS Broth Lactobacillus, MRS Agar Lactobacillus (BioMaxima S.A., Poland), BHI Broth and BHI agar (BioMaxima S.A., Poland) for microaerobic strains were used in the microbial tests.” left out
as §2, with “Each compound (100 µg) was placed on Petri plates with agar medium (previously inoculated with 0.5 McFarland standards with the tested bacterial strains).” left out

| SMILES | melting point | zone of inhibition at 100 µg/disc [1] | zone of inhibition at 100 µg/disc [2] | zone of inhibition at 100 µg/disc (Lactobacillus spp.) | zone of inhibition at 100 µg/disc [3] | zone of inhibition at 100 µg/disc [4] | zone of inhibition at 100 µg/disc [5] | zone of inhibition at 100 µg/disc [6] | zone of inhibition at 100 µg/disc [7] | MIC [8] | MIC [9] | MIC [10] | MIC [11] | MIC [12] | MIC [14] | MIC [15] | also measured |
| --- | --- | --- | --- | --- | --- | --- | --- | --- | --- | --- | --- | --- | --- | --- | --- | --- | --- |
| O=C(NNC(=S)Nc1ccccc1F)c1ccncc1 [Compound 9, 4-(2-Fluorophenyl)-1-(pyridin-4-yl)carbonylthiosemicarbazide] | 202 to 204 °C | 0 mm | 0 mm | 0 mm | 0 mm | 0 mm | 0 mm | 0 mm | 0 mm |  |  |  |  |  |  |  |  |
| O=C(NNC(=S)NCCN1CCOCC1)c1ccccn1 [Compound 3, 4-(2-Morpholinoethyl)-1-(pyridin-2-yl)carbonylthiosemicarbazide] | 196 to 198 °C | 0 mm | 0 mm | 0 mm | 0 mm | 0 mm | 7 mm | 0 mm | 0 mm |  |  |  |  |  |  |  |  |
| O=C(NNC(=S)Nc1ccccc1F)c1ccccn1 [Compound 1, 4-(2-Fluorophenyl)-1-(pyridin-2-yl)carbonylthiosemicarbazide] | 182 to 184 °C | 18 mm | 12 mm | 24 mm | 10 mm | 10 mm | 26 mm | 22 mm | 12 mm | 125 µg/mL (≈ 431 µM) | 31.2 µg/mL | 500 µg/mL | 250 µg/mL | 15.6 µg/mL | 500 µg/mL | 15.6 to 500 µg/mL | MIC [13]: 62 to 125 µg/mL; Minimum inhibitory concentration (MIC), E. coli [13]: 62.5 µg/mL; MIC [16]: 7.81 to 500 µg/mL |
| CO/N=C(\C(=O)N[C@@H]1C(=O)N2C(C(=O)O)=C(C[N+]3(C)CCCC3)CS[C@H]12)c1csc(N)n1.Cl.[Cl-] [Cefepime, cefepime dihydrochloride, reference compound] |  |  |  |  |  |  |  |  |  |  |  |  |  |  |  |  | Minimum inhibitory concentration (MIC), L. acidophilus ([8]; NA means inactive): 3.9 µg/mL; Zone of bacterial growth inhibition, S.a ([1]; 100 μg of compound): 38 mm; Zone of bacterial growth inhibition, L.a ([2]; 100 μg of compound): 31 mm; Zone of bacterial growth inhibition, L.spp. (Lactobacillus spp.): 29 mm; Zone of bacterial growth inhibition, S.s ([3]; 100 μg of compound): 29 mm; Zone of bacterial growth inhibition, S.m ([4]; 100 μg of compound): 32 mm; Zone of bacterial growth inhibition, S.e ([5]; 100 μg of compound): 36 mm; Zone of bacterial growth inhibition, E.c ([6]; 100 μg of compound): 35 mm; Zone of bacterial growth inhibition, P.a ([7]; 100 μg of compound): 29 mm; Minimum inhibitory concentration (MIC), S. aureus ([9]; NA means inactive): 0.976 µg/mL; Minimum inhibitory concentration (MIC), S. sanguinis ([10]; NA means inactive): 0.122 µg/mL; Minimum inhibitory concentration (MIC), S. mutans ([11]; NA means inactive): 0.122 µg/mL; Minimum inhibitory concentration (MIC), S. epidermidis ([12]; NA means inactive): 0.976 µg/mL; Minimum inhibitory concentration (MIC), E. coli [13]: 0.015 µg/mL; Minimum inhibitory concentration (MIC), P. aeruginosa ([14]; NA means inactive): 0.488 µg/mL; zones of inhibition, all tested strains (tested bacterial strains): 29–38 mm |
| CSc1ccc(NC(=S)NNC(=O)c2ccccn2)cc1 [Compound 5, 4-(4-Methylthiophenyl)-1-(pyridin-2-yl)carbonylthiosemicarbazide] | 184 to 186 °C | 10 mm | 19 mm | 11 mm | 15 mm | 0 mm | 10 mm | 11 mm | 0 mm | 500 µg/mL (≈ 1570 µM) | 250 µg/mL | 31.2 µg/mL | 31.2 µg/mL | 125 µg/mL | > 1000 µg/mL | 15.6 to 500 µg/mL | MIC [16]: 7.81 to 500 µg/mL |
| CSc1ccc(NC(=S)NNC(=O)c2ccncc2)cc1 [Compound 8, 4-(4-Methylthiophenyl)-1-(pyridin-4-yl)carbonylthiosemicarbazide] | 197 to 198 °C | 0 mm | 0 mm | 0 mm | 0 mm | 0 mm | 0 mm | 0 mm | 0 mm |  |  |  |  |  |  |  |  |
| O=C(NNC(=S)Nc1ccc(Cl)cc1Cl)c1ccncc1 [Compound 10, 4-(2,4-Dichlorophenyl)-1-(pyridin-4-yl)carbonylthiosemicarbazide] |  | 16 mm | 0 mm | 0 mm | 20 mm | 28 mm | 13 mm | 7 mm | 0 mm | 1000 µg/mL (≈ 2930 µM) | 125 µg/mL | 1000 µg/mL | 250 µg/mL | 250 µg/mL | 1000 µg/mL | 15.6 to 500 µg/mL | MIC [13]: 1000 µg/mL |
